System: ABCA-1 gene
Test: compounds tested and found to elevate cellular expression of the ABCA-1 gene (Examples 1-6; test not named)
Type: cell-based
Description: Activity testing is conducted as described in those patents and patent applications referenced above, and in the Examples below, and by methods apparent to one skilled in the art.

Compound | cellular expression of the ABCA-1 gene
COc1ccc(C(=O)NC2=NC(C(=O)O)CS2)cc1 (centres unmarked) [2-[(4-methoxyphenyl)carbonylamino]-1,3-thiazoline-4-carboxylic acid] | elevate cellular expression of the ABCA-1 gene
CCCN(C(=O)Nc1cccc(OC)c1)C(C)c1nc2cc(Cl)ccc2c(=O)n1-c1ccc(C)cc1 (centres unmarked) [N-{[7-chloro-3-(4-methylphenyl)-4-oxo(3-hydroquinazolin-2-yl)]ethyl}[(3-methoxyphenyl)amino]-N-propylcarboxamide] | elevate cellular expression of the ABCA-1 gene
O=C(CCC1CCCC1)Nc1ccc2c(c1)CCC2 [3-cyclopentyl-N-indan-5-ylpropanamide] | elevate cellular expression of the ABCA-1 gene
O=C(Nc1nc2ccccc2c(=O)o1)c1ccc(Cl)c(Cl)c1 [(3,4-dichlorophenyl)-N-(4-oxobenzo[d]1,3-oxazin-2-yl)carboxamide] | elevate cellular expression of the ABCA-1 gene
CCc1c(C(=O)NC(C)C(C)C)cnn1-c1nc(-c2ccc(C)cc2)cs1 (centres unmarked) [N-(1,2-dimethylpropyl){5-ethyl-1-[4-(4-methylphenyl)(1,3-thiazol-2-yl)]pyrazol-4-yl}carboxamide] | elevate cellular expression of the ABCA-1 gene
CCc1c(C(=O)N2CCN(C(=O)C(C)C)C(C)C2)cnn1-c1nc(-c2ccc(OC)cc2)cs1 (centres unmarked) [1-(4-{5-ethyl-1-[4-(4-methoxy-phenyl)-thiazol-2-yl]-1H-pyrazole-4-carbonyl}-2-metyl-piperazin-1-yl)-2-methyl-propan-1-one] | elevate cellular expression of the ABCA-1 gene
O=C(NC1=NCCS1)c1cc(C(F)(F)F)cc(C(F)(F)F)c1 [(3,5-bistrifluoromethylphenyl)-N-(1,3-thiazolin-2-yl)carboxamide] | elevate cellular expression of the ABCA-1 gene
Cc1ccc2nc(-c3ccc(NC(=O)Cc4cccs4)cc3)sc2c1 [N-[4-(6-methylbenzothiazol-2-yl)phenyl]-2-(2-thienyl)acetamide] | elevate cellular expression of the ABCA-1 gene
Cc1cc(C(=O)Nc2ncc(-c3ccccc3)s2)c(C)o1 [(2,5-dimethyl(3-furyl))—N-(5-phenyl(1,3-thiazol-2-yl))carboxamide] | elevate cellular expression of the ABCA-1 gene
O=C(Nc1ccc(Cl)cc1)c1ccc2ccccc2c1 [N-(4-chlorophenyl)-2-naphthylcarboxamide] | elevate cellular expression of the ABCA-1 gene
N#Cc1c(C(F)(F)F)cc(-c2cccs2)nc1SCC(=O)Nc1nc2ccccc2s1 [N-benzothiazol-2-yl-2-[3-cyano-6-(2-thienyl)-4-(trifluoromethyl)(2-pyridylthio)]acetamide] | elevate cellular expression of the ABCA-1 gene
CC(C)(C)c1ccc(C(=O)Nc2ncc(-c3ccccc3)s2)cc1 [[4-(tert-butyl)phenyl]-N-(5-phenyl(1,3-thiazol-2-yl))carboxamide] | elevate cellular expression of the ABCA-1 gene
O=C(NCCc1ccccn1)c1ccccc1 [phenyl-N-(2-(2-pyridyl)ethyl)carboxamide] | elevate cellular expression of the ABCA-1 gene
Cc1ccc(-c2cnc(NC(=O)c3ccc(Cl)cc3)s2)cc1 [(4-chlorophenyl)-N-[5-(4-methylphenyl)(1,3-thiazol-2-yl)]carboxamide] | elevate cellular expression of the ABCA-1 gene
O=C(NC1=NC(C(=O)O)CS1)c1cc(C(F)(F)F)cc(C(F)(F)F)c1 (centres unmarked) [2-[(3,5-bistrifluoromethylphenyl)carbonylamino]-1,3-thiazoline-4-carboxylic acid] | elevate cellular expression of the ABCA-1 gene
O=C(Nc1ccc2c(c1)CCC2)c1ccco1 [2-furyl-N-indan-5-ylcarboxamide] | elevate cellular expression of the ABCA-1 gene
CCCCNC(=O)N(Cc1ccco1)C(C)c1nc2cc(Cl)ccc2c(=O)n1-c1ccc(C)cc1 (centres unmarked) [(butylamino)-N-{[7-chloro-3-(4-methylphenyl)-4-oxo(3-hydroquinazolin-2-yl)]ethyl}-N-(2-furylmethyl)carboxamide] | elevate cellular expression of the ABCA-1 gene
O=C(Nc1nc2ccccc2s1)c1cc2ccccc2s1 [benzo[b]thiophen-2-yl-N-benzothiazol-2-ylcarboxamide] | elevate cellular expression of the ABCA-1 gene
O=C(NC1=NCCS1)c1cccc(F)c1 [(3-fluorophenyl)-N-(1,3-thiazolin-2-yl)carboxamide] | elevate cellular expression of the ABCA-1 gene

Compound | cellular expression of the ABCA-1 gene
CCc1c(C(=O)NCC(C)C)cnn1-c1nc(-c2ccc(Br)cc2)cs1 [{1-[4-(4-bromophenyl)(1,3-thiazol-2-yl)]-5-ethylpyrazol-4-yl}-N-(2-methylpropyl)carboxamide] | elevate cellular expression of the ABCA-1 gene
COC(=O)c1ccc(C(=O)NC2=NCCS2)cc1 [methyl 4-(N-(1,3-thiazolin-2-yl)carbamoyl)benzoate] | elevate cellular expression of the ABCA-1 gene
CCOC(=O)C1=C(NCCc2ccccc2)CCN(C(=O)c2ccc(-c3ccccc3)cc2)C1 [ethyl 4-[(2-phenylethyl)amino]-1-[(4-phenylphenyl)carbonyl]-1,2,5,6-tetrahydropyridine-3-carboxylate] | elevate cellular expression of the ABCA-1 gene
CCOC(=O)C1=C(NCCc2ccccc2)CCN(C(=O)c2ccc(C(C)(C)C)cc2)C1 [ethyl 1-[(4-t-butylphenyl)carbonyl]-4-[(2-phenylethyl)amino]-1,2,5,6-tetrahydropyridine-3-carboxylate] | elevate cellular expression of the ABCA-1 gene
O=C(Nc1nccs1)c1ccccc1C(F)(F)F [2-trifluoromethylphenyl-N-(1,3-thiazol-2-yl)carboxamide] | elevate cellular expression of the ABCA-1 gene
O=C(Nc1nc2ccccc2s1)c1ccno1 [N-benzothiazol-2-ylisoxazol-5-ylcarboxamide] | elevate cellular expression of the ABCA-1 gene
CC(C)(C)c1ccc(C(=O)NC2=NC(=O)CS2)cc1 [[4-(tert-butyl)phenyl]-N-(4-oxo(1,3-thiazolin-2-yl))carboxamide] | elevate cellular expression of the ABCA-1 gene
CCOc1ccc(-n2c(C(C)N3CCN(C(=O)Nc4ccc(OC)cc4OC)CC3)nc3ccccc3c2=O)cc1 (centres unmarked) [4-{1-[3-(4-ethoxyphenyl)-4-oxo-3,4-dihydro-quinazolin-2-yl]-ethyl}-piperazine-1-carboxylic acid (2,4-dimethoxy-phenyl)-amide] | elevate cellular expression of the ABCA-1 gene
CC(c1nc2ccccc2c(=O)n1-c1ccc2ccccc2c1)N(CCN(C)C)C(=O)Nc1ccc(F)cc1F (centres unmarked) [[(2,4-difluorophenyl)amino]-N-[2-(dimethylamino)ethyl]-N-[(3-(2-naphthyl)-4-oxo(3-hydroquinazolin-2-yl))ethyl]carboxamide] | elevate cellular expression of the ABCA-1 gene
[((2E)-2-pentyl-3-phenylprop-2-enyl)({1-[(4-butylphenyl)carbonyl](4-piperidyl)}methyl)amino]-N-benzamide | elevate cellular expression of the ABCA-1 gene
CC(=O)Nc1ccc(N=Nc2ccccc2)cc1 [N-[4-(phenyldiazenyl)phenyl]acetamide] | elevate cellular expression of the ABCA-1 gene
COc1cc(OC)cc(C(=O)NC2=NC(=O)CS2)c1 [(3,5-dimethoxyphenyl)-N-(4-oxo(1,3-thiazolin-2-yl))carboxamide] | elevate cellular expression of the ABCA-1 gene
COc1cccc(C(=O)NC2=NC(C(=O)O)CS2)c1 (centres unmarked) [2-[(3-methoxyphenyl)carbonylamino]-1,3-thiazoline-4-carboxylic acid] | elevate cellular expression of the ABCA-1 gene
CCN(CCCN(CC)c1nc2cc(C(=O)Nc3ccc(OC)cc3)ccc2o1)C(=O)c1cccc(F)c1C [[2-(ethyl{3-[N-ethyl(3-fluoro-2-methylphenyl)carbonylamino]propyl}amino)benzoxazol-5-yl]-N-(4-methoxyphenyl)carboxamide] | elevate cellular expression of the ABCA-1 gene
CCOC(=O)c1ccc(NC(=O)Nc2ccccc2)cc1 [ethyl 4-[(phenylamino)carbonylamino]benzoate] | elevate cellular expression of the ABCA-1 gene
CCC(c1nc2ccccc2c(=O)n1-c1ccc(C)c(C)c1)N(Cc1ccccc1)C(=O)Nc1ccc(OC)cc1 (centres unmarked) [N-{[3-(3,4-dimethylphenyl)-4-oxo(3-hydroquinazolin-2-yl)]propyl}[(4-methoxyphenyl)amino]-N-benzylcarboxamide] | elevate cellular expression of the ABCA-1 gene
N#Cc1ccc(C(=O)Nc2nc(-c3ccccc3)cs2)cc1 [(4-cyanophenyl)-N-(4-phenyl(1,3-thiazol-2-yl))carboxamide] | elevate cellular expression of the ABCA-1 gene
CCc1c(C(=O)NCc2ccco2)cnn1-c1nc(-c2ccc(C)cc2)cs1 [5-ethyl-1-(4-p-tolyl-thiazol-2-yl)-1H-pyrazole-4-carboxylic acid (furan-2-ylmethyl)-amide] | elevate cellular expression of the ABCA-1 gene
2-[(4-methylethylphenyl)carbonylamino]-1,3-thiazoline-4-carboxylic acid | elevate cellular expression of the ABCA-1 gene
